# In patent US10017509B2, “Macrocylic pyrimidine derivatives” (Janssen Pharmaceutica NV, priority 2014, dated 2018):
# Legend:
# EF2K [1] = target: T1, EF2K (Homo sapiens, UniProt O00418); experiment: Biochemical EF2K lysate-based kinase assay (AlphaLISA p-eEF2 Thr56); details: pIC50 = -log IC50 (M), read-out: eEF2K_C_alphalisa pIC50 (converted)
# T1 construct: host or cells: LN-229 cell lysate
# T1 sequence (O00418 1-725): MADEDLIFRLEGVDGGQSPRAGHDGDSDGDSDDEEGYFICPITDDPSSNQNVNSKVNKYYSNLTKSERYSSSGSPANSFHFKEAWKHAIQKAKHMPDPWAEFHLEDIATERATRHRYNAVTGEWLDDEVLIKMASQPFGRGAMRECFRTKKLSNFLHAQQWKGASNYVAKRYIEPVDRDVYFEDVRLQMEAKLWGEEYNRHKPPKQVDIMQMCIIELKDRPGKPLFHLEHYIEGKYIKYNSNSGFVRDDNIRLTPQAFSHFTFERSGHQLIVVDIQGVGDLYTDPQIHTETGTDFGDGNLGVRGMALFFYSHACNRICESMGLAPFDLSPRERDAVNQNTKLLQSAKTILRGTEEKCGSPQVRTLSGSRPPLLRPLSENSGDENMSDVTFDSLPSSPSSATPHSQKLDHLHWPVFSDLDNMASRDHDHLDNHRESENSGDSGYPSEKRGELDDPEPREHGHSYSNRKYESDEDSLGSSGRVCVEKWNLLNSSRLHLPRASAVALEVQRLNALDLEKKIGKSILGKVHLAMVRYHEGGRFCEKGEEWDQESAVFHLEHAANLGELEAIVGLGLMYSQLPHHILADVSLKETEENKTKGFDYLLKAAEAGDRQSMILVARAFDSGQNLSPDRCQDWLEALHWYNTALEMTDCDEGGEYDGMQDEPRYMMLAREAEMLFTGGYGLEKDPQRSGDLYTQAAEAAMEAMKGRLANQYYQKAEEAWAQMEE
# Method in brief: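 LN-229 glioblastoma lysate supplied both EF2K and eEF2 substrate; compound incubated 15 min at room temperature in pH 6.6 buffer with 10 mM Mg2+ and 10 mM ATP. EDTA-stopped; phospho-eEF2 Thr56 quantified by AlphaLISA sandwich, final read after overnight. Values as pIC50.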
# [2] = target: Vps34 (PIK3C3 lipid kinase) (Homo sapiens, UniProt Q8NEB9); experiment: Biochemical Vps34 lipid kinase assay (ADP-Glo); details: for remaining activity at 1 µM: 1 h, read-out: VPS34_1microM_% of cntrl; for IC50: serial half-log dilution 10 μM to 0.3 nM, pIC50 = -log IC50 (M)
# Method in brief: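 ADP-Glo luminescence assay of PIK3C3 (7.6 nM) with 50 µM substrate and 20 µM ATP (apparent Km) in HEPES pH 7.5, 100 mM NaCl, 3 mM MnCl2, CHAPS, DTT; 60 min, 30 °C. Single dose 1 µM (residual activity vs DMSO) or half-log series 10 µM-0.3 nM giving pIC50.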
# EF2K [3] = target: T1, EF2K; experiment: EF2K cell-based assay (P-EF2 AlphaLISA, 2-deoxyglucose stimulated MCF10A cells); details: 2.5 mM 2-deoxyglucose stimulated, P-EF2 Thr56, pIC50 = -log IC50 (M), read-out: eEF2K_C_PThr56 pIC50 (converted)
# Method in brief: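 MCF10A cells, after 24 h culture, treated 1 h with compound then stimulated 4 h with 2.5 mM 2-deoxyglucose to activate AMPK. Lysates in M-PER with protease/phosphatase inhibitors assayed for P-EF2 by AlphaLISA; pIC50 = −log IC50 (M).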
# [4] = single dose 1 μM compound, residual activity compared to control (DMSO)
# Chain of Vps34 (PIK3C3 lipid kinase) (Q8NEB9 whole entry, species assumed): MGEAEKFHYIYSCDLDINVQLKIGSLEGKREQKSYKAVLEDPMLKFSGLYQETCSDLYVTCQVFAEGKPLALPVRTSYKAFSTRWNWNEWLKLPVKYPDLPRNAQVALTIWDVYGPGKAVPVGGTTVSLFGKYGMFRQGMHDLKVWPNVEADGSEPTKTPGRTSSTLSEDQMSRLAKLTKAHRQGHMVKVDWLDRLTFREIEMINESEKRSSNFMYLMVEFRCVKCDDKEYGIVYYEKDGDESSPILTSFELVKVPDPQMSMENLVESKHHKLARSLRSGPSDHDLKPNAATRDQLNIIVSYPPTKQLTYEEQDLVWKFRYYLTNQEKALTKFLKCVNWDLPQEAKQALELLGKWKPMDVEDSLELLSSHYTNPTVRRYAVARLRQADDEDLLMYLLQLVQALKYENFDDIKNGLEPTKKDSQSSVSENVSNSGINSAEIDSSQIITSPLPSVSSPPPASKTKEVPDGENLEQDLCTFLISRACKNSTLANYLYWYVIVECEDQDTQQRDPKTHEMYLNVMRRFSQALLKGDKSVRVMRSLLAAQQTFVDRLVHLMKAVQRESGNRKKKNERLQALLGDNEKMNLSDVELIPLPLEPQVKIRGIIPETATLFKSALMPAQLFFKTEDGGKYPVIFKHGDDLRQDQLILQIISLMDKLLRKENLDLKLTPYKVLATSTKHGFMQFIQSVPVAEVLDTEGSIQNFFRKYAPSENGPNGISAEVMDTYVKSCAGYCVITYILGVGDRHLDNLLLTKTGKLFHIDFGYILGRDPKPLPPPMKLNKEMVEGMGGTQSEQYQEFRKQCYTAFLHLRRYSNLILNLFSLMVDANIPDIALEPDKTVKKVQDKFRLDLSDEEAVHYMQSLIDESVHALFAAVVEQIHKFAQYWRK
SMILES,IC50 (EF2K [1]) [M],"remaining activity at 1 µM [2, 4] [%]",IC50 [2] [M],IC50 (EF2K [3]) [M],"VPS34_1microM_% of cntrl [2, 4]"
O=C1CN2CCN(CC2)C(=O)c2cccc(c2)Nc2nccc(n2)-c2ccc(nc2)NCCCN1 [Compound 117],3.47e-07,11.7,2e-07,> 3.02e-05,
CN1CCCN(C)c2ccc(cn2)-c2ccnc(n2)Nc2cccc(c2)C(=O)N2CCN(CC2)CC1=O [Compound 28],~5.5e-08,45.6,,> 3.02e-05,
O=C1CN2CCN(CC2)Cc2cccc(c2)Nc2nccc(n2)-c2ccc(nc2)CN(C(=O)C(F)(F)F)CCN1 [Compound 132],6.92e-08,7.12,1.91e-07,3.98e-06,
COCCOCC1CN2CCN1Cc1cccc(c1)Nc1nccc(n1)-c1ccc(nc1)N(C)CCCN(C)C(=O)C2 (stereo not shown) [Compound 101],1.7e-07,29.4,7.76e-07,2.04e-05,
CC(C)N1CCNc2ccc(cn2)-c2ccnc(n2)Nc2cccc(c2)CN2CCN(CC2)CC1=O [Compound 21],1.1e-06,23.6,5.01e-07,8.71e-06,
CS(=O)(=O)N1CCNC(=O)CN2CCN(CC2)Cc2cccc(c2)Nc2nccc(n2)-c2ccc(nc2)C1 [Compound 133],2.57e-06,14.6,1.48e-07,> 1e-05,
C=CCN1CCNC(=O)CN2CCN(CC2)Cc2cccc(c2)Nc2nccc(n2)-c2ccc(nc2)C1 [Compound 45],7.94e-09,,1.66e-07,2.19e-07,
CN1CCCN(C)c2ccc(cn2)-c2ccnc(n2)Nc2cccc(c2)CN2CCN(CC1=O)CC2COCCN1CCNCC1 (stereo not shown) [Compound 107],3.24e-07,32.7,,> 3.02e-05,
CN1CCCN(C)c2ccc(cn2)-c2ccnc(n2)Nc2cccc(c2)CN2CCC(CC2)CC1=O [Compound 81],2.4e-06,26.4,8.91e-07,1.82e-05,
CN1CCCN(C)c2ccc(cn2)-c2ccnc(n2)Nc2cccc(c2)CN2CCN(CC1=O)CC2COCCN1CCOCC1 (stereo not shown) [Compound 98],1.48e-07,33.9,,2.75e-05,
C#CCN1CCNC(=O)CN2CCN(CC2)Cc2cccc(c2)Nc2nccc(n2)-c2ccc(nc2)C1 [Compound 36],4.37e-08,16,3.39e-07,1.32e-06,
COCC1CN2CCN1Cc1cccc(c1)Nc1nccc(n1)-c1ccc(nc1)N(C)CCCN(C)C(=O)C2 (stereo not shown) [Compound 97],1.51e-07,24.6,5.37e-07,2.24e-05,
CN1CCCN(C)c2ccc(cn2)-c2ccnc(n2)Nc2cccc(c2)CC2CCN(CC2)CC1=O [Compound 109],1.35e-06,14.7,2.88e-07,> 3.02e-05,
CC(C)N1CCCNc2ccc(cn2)-c2ccnc(n2)Nc2cccc(c2)CN2CCN(CC2)CC1=O [Compound 22],7.24e-06,17.3,6.17e-06,> 3.02e-05,
CN1CCCN(C)c2ccc(cn2)-c2ccnc(n2)Nc2cncc(c2)CN2CCN(CC2)CC1=O [Compound 33],6.61e-07,23.9,7.41e-07,2.14e-05,
O=C1CN2CCN(CC2)Cc2cccc(c2)Nc2nccc(n2)-c2ccc(nc2)NCC(O)CN1 (stereo not shown) [Compound 23],5.01e-07,7.45,1.51e-07,2.24e-05,
"CN1CCCN(C)c2ccc(cn2)-c2ccnc(n2)Nc2cccc(c2)CN2CCN(CC1=O)CC2CO (single isomer, unassigned) [Compound 52]",9.12e-07,12.8,3.98e-07,> 3.02e-05,
O=C1CC2CCN(CC2)Cc2cccc(c2)Nc2nccc(n2)-c2ccc(nc2)NCCCN1 [Compound 79],> 3.02e-05,24.3,6.03e-07,> 3.02e-05,

# Continued by falling IC50 [2], values first:
IC50 (EF2K [1]) [M],"remaining activity at 1 µM [2, 4] [%]",IC50 [2] [M],IC50 (EF2K [3]) [M],"VPS34_1microM_% of cntrl [2, 4]",SMILES
1.17e-07,11.1,1.45e-07,5.13e-06,,CN1CCCN(C)c2ccc(cn2)-c2ccnc(n2)Nc2ccnc(c2)CN2CCN(CC2)CC1=O [Compound 32]
7.94e-06,8.1,1.41e-07,> 3.02e-05,,O=C1CN2CCN(CCc3cccc(c3)Nc3nccc(n3)-c3ccc(nc3)NCCCN1)CC2 [Compound 118]
1.82e-06,5.81,1.02e-07,2.63e-05,,CN1CCCN(C)c2ccc(cn2)-c2ccnc(n2)Nc2cccc(c2)CN2CCNC(CC1=O)C2 (stereo not shown) [Compound 128]
3.98e-07,9,8.71e-08,6.76e-06,,CNC(=O)c1ccc2cc1CN1CCN(CC1)CC(=O)NCCCNc1ccc(cn1)-c1ccnc(n1)N2 [Compound 13]
2.88e-06,6.36,7.76e-08,> 3.02e-05,,"O=C1CN2CCN(CC2)Cc2cccc(c2)Nc2nccc(n2)-c2ccc(nc2)NCC(O)CN1 (single isomer, unassigned) [Compound 25]"
1.78e-06,3.25,6.92e-08,> 3.02e-05,,CN1CCCN(C)c2ccc(cn2)-c2ccnc(n2)Nc2cccc(c2)CN2CCN(CC2)C(=O)C1 [Compound 83]
7.59e-07,7.3,6.92e-08,2.51e-05,,O=C1CN2CCN(CC2)Cc2cc(F)cc(c2)Nc2nccc(n2)-c2ccc(nc2)NCCCN1 [Compound 5]
1.66e-06,4.43,6.76e-08,> 3.02e-05,,O=C1CN2CCN(CC2)Cc2ccc(F)c(c2)Nc2nccc(n2)-c2ccc(nc2)NCCCN1 [Compound 3]
1.78e-07,6.55,6.46e-08,2.75e-06,,CC1CN2CCN1Cc1cccc(c1)Nc1nccc(n1)-c1ccc(nc1)NCCCNC(=O)C2 (stereo not shown) [Compound 60]
1.66e-07,3.73,2.69e-08,4.9e-06,,O=C1CN2CCN(Cc3cccc(c3)Nc3nccc(n3)-c3ccc(nc3)NCCCN1)C(CO)C2 (stereo not shown) [Compound 46]
1.45e-07,,1.66e-08,~8.51e-06,3.08 % of cntrl,"CC1CN2CCN1CC(=O)NCCCNc1ccc(cn1)-c1ccnc(n1)Nc1cccc(c1)C2 (single isomer, unassigned) [Compound 136]"
